Measurements taken from patent publication US20110124723A1, “Compounds for Preventing and Treating Plasmodium Infections” (UNIVERSITE PIERRE ET MARIE CURIE (PARIS 6), priority 2007, published 2011).
Where a name gives a salt, the structure may show the parent alone.

Key:
[1] = test system: P. yoelii sporozoites (265 BY strain); assay: Challenge of mice with P. yoelii sporozoites, parasitemia in blood smears; format: in vivo; conditions: Swiss mice, 5,000 sporozoites IV; for reduction of parasitemia with respect to controls: after 12 days
Method: All animal were kept and used in accordance with institutional guidelines and European regulations. Female 6-week-old Swiss mice (René Janvier, Le Genest-Saint-Isle, France) weighing 24-31 g were randomly allotted to all groups.
The drugs tested were administered intra-peritoneally (IP). Monensin (MN) (Monensin A sodium salt, ref. M5273, Sigma) was diluted in PBS-methanol 2% and Nigericin (NG) (Nigericin sodium salt, ref. N7143, Sigma), another polyether ionophore antibiotic, in PBS-DMSO 2%.
The drugs were administrated on days −1, 0, +1, +2 (+40 h), and the mice challenged on day 0 by intravenous injection of 5,000 P. yoelii sporozoites (265 BY strain).
Group 1 received 25 mg/kg/day of MN and group 2 received PBS-methanol 2%. These groups received the drug and the solvent from day −1. Group 3 received 25 mg/kg/day of MN and group 4 received PBS-methanol 2% from day 0 post-infection. Group 5 received 35 mg/kg/day of NG and group 6 received PBS-DMSO 2% from day −1. Group 7 and 8 received 35 mg/kg/day of NG and PBS-DMSO 2% respectively from day 0 post-infection.
All groups were challenged with 5,000 sporozoites at day 0. Parasites were enumerated by blinded microscopic examination of Giemsa-stained tail-blood smears collected at day 3 until day 9, day 12 and day 15 post-infection. A mouse was considered negative when no parasites could be observed in 20,000 red blood cells (50 fields under a 50× light microscope objective) on any day during the period of observation.

[2] = test system: P. yoelii sporozoites; assay: Sporozoite migration assay (HepG2CD81 cells, FITC-dextran, flow cytometry); format: cell-based; conditions: all concentrations (5 μM, 5 nM and 5 picomolar); 2 h at 37° C.; vs untreated sporozoites
Method: P. yoelii sporozoites treated with three concentrations (5 μM, 5 nM and 5 picomolar) of MN were incubated with HepG2CD81 cells for 2 h at 37° C. in the continued presence of with 0.5 mg/ml FITC-dextran. After 2 h at 37° C., cells were washed and fixed with PBS-formaldehyde 1%, and FITC-positive cells were counted by flow cytometry.

[3] = test system: P. yoelii oocysts in Anopheles stephensi; assay: Transmission to mosquito: oocysts in Anopheles stephensi midguts fed on treated mice; format: in vivo; conditions: Anopheles stephensi fed 2 hours on MN treated mice; 30 midguts dissected 8 days later
Method: The mice of the MN treated group and the control group of Example 3 were anesthetized and placed for 2 hours over a cage with 100 female laboratory-bred Anopheles stephensi. Oocysts were enumerated in 30 mosquito midguts dissected 8 days later.

[4] = test system: P. yoelii blood stage; assay: Blood stage infection of mice with P. yoelii-infected red blood cells; format: in vivo; conditions: 25 mg/kg at day-3, day-2, day-1 before infection
Method: Two groups of mice were treated at day-3, day-2 and day-1 before infection with MN (25 mg/kg) or solvent (PBS-Methanol-2%). At day 0 the mice were inoculated IP with 4×10^5 P. yoelii-infected red blood cells. From day 3 post-infection, an enumeration of parasites in blood smears was conducted until day 10 post-infection.

[5] = test system: P. yoelii sporozoites; assay: Maturation assay: hepatocyte cultures infected with sporozoites, then treated; format: cell-based; conditions: all concentrations (50 pM, 1 μM, 10 μM) for 45 h after 3 h infection and washing
Method: The experiment consisted in infecting hepatocytes cultures with P. yoelii sporozoites for 3 h, washing the cultures and then treating them with MN 50 pM, 1 μM, or 10 μM, for 45 h at 37° C.

[6] = test system: pre-erythrocytic development stage of P. yoelii; assay: Real-time PCR quantification of the liver stage parasite burden; format: in vivo; conditions: mice, 25 mg/kg IP on days 0 and +1; 2.5×10^5 sporozoites IV; liver 40 h post-infection
Method: MN was administered IP on days 0 and day +1. Group 1 received 25 mg/kg of MN, whereas the control groups received the MN solvent (PBS-Methanol 2%). Mice were then challenged on day 0 by intra-venous injection with 2.5×10^5 P. yoelii sporozoites and sacrificed 40 h post-infection.
A piece of liver (0.2 g) was harvested and total RNA extracted using the Micro to Midi Kit (Invitrogen, France) according to the manufacturer's instructions and treated with Dnase Turbo DNA free (Ambion, France). Five micrograms of total RNA was reverse transcribed by Superscript II (Invitrogen) and an equivalent of 100 ng RNA was used for each TaqMan® PCR reactions on a MX4000 multiplex quantitative PCR system (Stratagene, France).
Mouse β-actin primers (forward […] (SEQ ID NO: 4), reverse […] (SEQ ID NO: 5); Invitrogen) and probe (HEX-[…]-BHQ2 (SEQ ID NO: 6); MWG biotech) were used for normalisation.
P. yoelii 18S rRNA and mouse β-actin PCR fragments were cloned into plasmids and used in a 10-fold dilution series to determine a standard curve.
Absolute transcript copy number for each gene was calculated based on the external standard curve. Quantitative parasite burden was expressed as the ratio between absolute copy numbers of P. yoelii 18S ribosomal cDNA and mouse β-actin cDNA to account for experimental differences. TaqMan® test sample and plasmid standards were done in quadruplet.

[7] = test system: P. yoelii sporozoites; assay: Invasion assay, first experiment: pre-treatment of sporozoites, then hepatocytes, EEF count; format: cell-based; conditions: washed, 48 h with hepatocytes
Method: Two experiments were performed.
The first experiment consisted in pre-treatment of P. yoelii sporozoites with MN at 5 pM, 0.5 μM, or 5 μM, for 1 h at room temperature then washed and added to hepatocytes. Sporozoites controls were pre-treated with medium alone and incubated 1 h at room temperature in the same conditions. Parasites were then incubated with hepatocytes for 48 h at 37° C. in 5% CO2, stained, and examined microscopically to determine the quantity of exo-erythrocytic forms (EEF) (Basco et al., 1999; Mahmoudi et al., 2003).

[8] = test system: P. yoelii sporozoites; assay: Invasion assay, second experiment: infecting hepatocytes with sporozoites in the presence of MN, EEF count; format: cell-based; conditions: all concentrations (50 pM, 1 μM, 10 μM) present for 3 h during infection, then 45 h culture
Method: The second experiment consisted in infecting hepatocytes with sporozoites in the presence of MN at 50 pM, 1 μM, or 10 μM. After 3 h of incubation, MN was eliminated and the cultures were maintained 45 h at 37° C. in 5% CO2.
The cultures were stained and the quantity of exo-erythrocytic forms (EEF) was determined microscopically.

| SMILES | protection from erythrocytic infection (mice with no parasite in blood smears) ([1]; 25 mg/kg/day IP daily for 3 days (treated, from day 0)) | protection from erythrocytic infection (mice with no parasite in blood smears) ([1]; 25 mg/kg/day IP daily for 4 days (pre-treated, from day -1)) | inhibition of sporozoites migration [2] [%] | oocysts in mosquito midguts [3] | parasitemia course ([4]; 4×10^5 infected red blood cells IP, blood smears day 3-10) | male gametocytes in blood ([4]; vs untreated group) | inhibition of parasite development [5] | inhibition on parasite development (liver parasite burden, 18S rRNA/β-actin) [6] [%] | inhibition of parasite development (EEF) ([7]; sporozoites pre-treated 1 h with 5 pM) [%] | inhibition of parasite development (EEF) ([7]; sporozoites pre-treated 1 h with 0.5 μM) | inhibition of parasite development (EEF) ([7]; sporozoites pre-treated 1 h with 5 μM) | inhibition of parasite development (EEF) [8] | reduction of parasitemia with respect to controls ([1]; 35 mg/kg/day IP daily for 3 days (treated)) [%] | reduction of parasitemia with respect to controls ([1]; 35 mg/kg/day IP daily for 4 days (pretreated)) [%] |
| --- | --- | --- | --- | --- | --- | --- | --- | --- | --- | --- | --- | --- | --- | --- |
| CC[C@@]1([C@H]2O[C@H]([C@H]3O[C@@](O)(CO)[C@H](C)C[C@@H]3C)C[C@H]2C)CC[C@H]([C@@]2(C)CC[C@]3(C[C@H](O)[C@@H](C)[C@@H]([C@H](C)[C@H](OC)[C@@H](C)C(=O)[O-])O3)O2)O1.[Na+] [MN, Monensin A sodium salt] | 100 % of the mice | 100 % of the mice | 93 | No oocyst could be observed | Increasing parasitemia, although delayed by comparison with the control group | no male gametocytes were observed | completely inhibited parasite development | 96.8 | 96.26 | complete inhibition | complete inhibition | totally inhibited parasite development |  |  |
| CO[C@@H]1C[C@@H](C[C@H]2CC[C@H](C)[C@H]([C@@H](C)C(=O)O)O2)O[C@]2(O[C@](C)([C@H]3CC[C@@](C)([C@@H]4O[C@@H]([C@H]5O[C@@](O)(CO)[C@H](C)C[C@@H]5C)C[C@@H]4C)O3)C[C@H]2C)[C@@H]1C [NG, Nigericin sodium salt, reference compound] |  |  |  |  |  |  |  |  |  |  |  |  | 51 | 71 |
